Columns and labels:
Format in all cases: physicochemical
[1] = Preliminary release of testosterone from solid pellets through 3 nm nanochannel membrane (UV absorbance)
Experimental: In a preliminary experiment, the nanochannel implant was loaded with degradable testosterone pellets immersed in DI water. The amount of DI water inserted in the capsule was approximately 700 μL.

[2] = First long-term testosterone release experiment, capsule with 3 nm membrane into sink solution; details: pellet formulation (Testopel), 3 nm nanochannel membrane, 37° C.
Experimental: In the first long-term testosterone release experiment, two testosterone formulations, powder and pellet (Testopel), were used. The release experiment was performed from a capsule into a bottle containing the recipient sink solution. A 3 nm membrane was used for each testosterone formulation and assembled within the capsule. Each nanochannel presented a width of 5 μm and a length of 3 μm. The nanochannel membrane was fabricated by NanoMedical Systems, Inc., Austin Tex. by using the fabrication methods as described in PCT/US2009/064376. In general, the nanochannel membrane was fabricated with microfabrication techniques by employing a sacrificial layer technique, to obtain precise nanochannels parallel to the membrane surface and connected to the membrane inlet and outlet by means of sets of microchannels.
The total number of nanochannel per membrane is equal to 118496. Testosterone powder (21.2 mg) was weighted into the titanium capsule, which was filled with 791 μL of Millipore water. […] For the release measurement of both testosterone conformations, a UV-Vis absorbance versus concentration standard curve was prepared. The testosterone solutions were sampled every other day and the UV absorbance was measured at a wavelength of 250 nm. The sampling method consisted of removing 1.5 mL of the sink solution, measuring the absorbance, and returning the sample to the bottle. […]

[3] = Second long-term testosterone release experiment, capsule with 40 nm membrane into sink solution; details: pellet formulation (Testopel), 40 nm nanochannel membrane
Text: The second long-term testosterone release experiment was run with the same setup and measurement method. In this case, 40 nm membranes with 8 μm wide and 1 μm long nanochannels were used for both testosterone formulations. The nanochannel membrane was fabricated by NanoMedical Systems, Inc., Austin Tex. by using the fabrication methods as described in PCT/US2009/064376. In general, the nanochannel membrane was fabricated with microfabrication techniques by employing a sacrificial layer technique, to obtain precise nanochannels parallel to the membrane surface and connected to the membrane inlet and outlet by means of sets of microchannels.
Testosterone powder and pellet (26 and 24.7 mg, respectively) were weighted into PEEK capsules. Both capsules were filled with 900 μL and dropped into 90 mL of Millipore water. The sampling measurement was performed every other day with the same method described above.

[4] = Levothyroxine release from capsule with 3 nm nanochannel membrane into sink solution; details: powder, 2 separate experiments (019, 040)
Text: The implantable capsule comprising one or more nanochannel membranes were fabricated according to US 2010/0152699 and PCT/US2009/064376. The nanochannel membranes present nanochannels ranging in sizes between 3 and 50 nm. The nanochannel membranes (FIG. 2A) were produced in 29 configurations presenting different constant rates of delivery. Custom diffusion devices (FIG. 2B) were utilized for measuring the amount of drug released from nanochannel membrane devices using UV-spectroscopy, as described in Grattoni et al., Lab on a Chip 10:3074-3083 (2010) and Grattoni et al., Anal. Chem. 83:3096-3103 (2011). A linear standard curve relating UV absorbance and concentration of diffused substance was obtained at a wavelength of 250 nm and used for the release test of testosterone. A linear standard curve relating UV absorbance and concentration of diffused substance was obtained at a wavelength of 240 nm and used for the release test of levothyroxine. […]
PEEK capsules were loaded with 852 and 875 μL of Millipore water and 17.1 mg of powder. […] For the release measurement, a UV-Vis absorbance versus concentration standard curve was prepared. The absorbance was measured at 240 nm. The sampling method consisted of removing 1.5 mL of the sink solution, measuring the absorbance, and returning the sample to the bottle. […]

Compound | duration of constant release of testosterone ([1]; solid pellets) | release rate of testosterone ([1]; solid pellets (24 mg testosterone) in DI water) | duration of constant (linear) delivery of testosterone [2] | duration of constant (linear) delivery of testosterone [3] | duration of continuous and constant release of levothyroxine [4] | approximate daily release rate of levothyroxine ([4]; 37° C.)
C[C@]12CC[C@H]3[C@@H](CCC4=CC(=O)CC[C@@]43C)[C@@H]1CC[C@@H]2O [testosterone] | 13 days | 5 µg/day | over 180 days | over 160 days | – | –
N[C@@H](Cc1cc(I)c(Oc2cc(I)c(O)c(I)c2)c(I)c1)C(=O)O.O.O.O.O.O.[Na] [levothyroxine, L-thyroxine sodium pentahydrate] | – | – | – | – | 17 days | ~500 µg/day

— US20150032088A1, “SUSTAINED DRUG DELIVERY FROM SOLID STATE COMPOSITIONS WITH NANOCHANNEL MEMBRANES” (priority 2012, published 2015)
